Data: PubChem BioAssay (NCI)
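Growth conditions: 96-well plates. Treatment: test compound, 48 hours, 5 concentrations. Analysis: linear interpolation between bracketing concentrations; unreached endpoints set to highest concentration. The concentration for 50% growth inhibition is given as GI50. At the TGI there is no net growth.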

Assays:
Assay in all cases: inhibition of tumour cell growth, NCI panel, 48 h
TK-10 renal = test system: TK-10 renal
OVCAR-3 ovarian = test system: OVCAR-3 ovarian
HCT-15 colon = test system: HCT-15 colon
SK-MEL-5 melanoma = test system: SK-MEL-5 melanoma
SK-MEL-2 melanoma = test system: SK-MEL-2 melanoma
786-0 renal = test system: 786-0 renal
HL-60(TB) leukemia = test system: HL-60(TB) leukemia
MDA-MB-435 = test system: MDA-MB-435

SMILES	TGI (TK-10 renal)	TGI (OVCAR-3 ovarian)	TGI (HCT-15 colon)	TGI (SK-MEL-5 melanoma)	TGI (SK-MEL-2 melanoma)	TGI (786-0 renal)	TGI (HL-60(TB) leukemia)	GI50 (TK-10 renal)	GI50 (OVCAR-3 ovarian)	GI50 (HCT-15 colon)	GI50 (SK-MEL-5 melanoma)	GI50 (SK-MEL-2 melanoma)	GI50 (786-0 renal)	GI50 (HL-60(TB) leukemia)	GI50 (MDA-MB-435)	TGI (MDA-MB-435)
CCOC(=O)C1=C(NNC(=O)Cc2ccccc2)CSC1=Nc1ccccc1	> 100 µM	> 100 µM	> 100 µM	> 100 µM	> 100 µM	> 100 µM	> 100 µM									
O=c1c2cc(Br)ccc2nc(-c2ccccc2Cl)n1NCC1(O)OCC(O)C(O)C1O (stereo not given)		> 100 µM	> 100 µM	> 100 µM	> 100 µM	> 100 µM	> 100 µM									
N#C/C(=C1\NN=C(N)C(c2ccc(Cl)cc2)=C1O)c1ccc(Cl)cc1	> 100 µM	> 100 µM				> 100 µM	> 100 µM									
O=C(O)CCSCCCN1C(=O)c2ccccc2C1=O	> 100 µM	> 100 µM	> 100 µM	> 100 µM	> 100 µM	> 100 µM										
[C-]#[O+].[C-]#[O+].[C-]#[O+].[C-]#[O+].[Ir].[Ir].[O-]c1ccc2ccccc2c1C=Nc1ccc(N=Cc2c([O-])ccc3ccccc23)cc1	> 100 µM	> 100 µM	> 100 µM	> 100 µM	> 100 µM	> 100 µM	> 100 µM	> 100 µM	> 100 µM	> 100 µM	> 100 µM	> 100 µM	46.3 µM	75.5 µM		
COc1ccc(C2=NN(C(=O)COc3ccc(Cl)cc3)C(O)(c3ccc(Cl)cc3)C2)cc1 (stereo not given)	> 100 µM	> 100 µM	> 100 µM		> 100 µM	> 100 µM	> 100 µM									
CS(=O)(=O)OCCn1cnc2nc(NC(=O)c3ccccc3)[nH]c(=O)c21	> 100 µM	> 100 µM	> 100 µM	> 100 µM	> 100 µM	> 100 µM	> 100 µM									
CC(=O)Nc1ccc(/C=N\N2C(=O)c3ccccc3C2=O)cc1	> 100 µM	> 100 µM	> 100 µM	> 100 µM	> 100 µM	> 100 µM	> 100 µM									
CC1CC2C(=O)N(c3ccccc3)C(=O)C2c2c1c1ccccc1n2Cc1ccccc1 (stereo not given)		> 100 µM	> 100 µM	> 100 µM	> 100 µM	> 100 µM	> 100 µM									
O=C(/C=C/c1ccc(Cl)c(Cl)c1)c1ccc(F)cc1	94.7 µM	38.1 µM	22.7 µM	41 µM		28.9 µM	33.6 µM									
CC1CC(c2cccc3c2OCO3)=Nc2ccccc2S1 (stereo not given)	> 100 µM	> 100 µM	> 100 µM	> 100 µM	> 100 µM	> 100 µM	> 100 µM									
CC1=C(C(=O)Nc2cccc(Cl)c2)C(c2ccc([N+](=O)[O-])cc2)C(C(=O)Nc2cccc(Cl)c2)=C(C)N1	> 100 µM	85.3 µM	79.8 µM	33.8 µM	32.9 µM	69.6 µM	47.4 µM									
CC(/C(=N/NC(=O)C(N)=O)c1c(Cl)ccc(Cl)c1O)C1(O)C(=O)Nc2ccccc21 (stereo not given)	> 100 µM	> 100 µM	> 100 µM	> 100 µM	> 100 µM	> 100 µM	68 µM									
Cn1ccc2c(c1=O)C(=O)c1nccc3c1c-2nc1ccccc13			3.46 µM	2.84 µM		3.18 µM	5.03 µM			1.56 µM	1.51 µM		1.64 µM	2.21 µM	1.62 µM	3.13 µM
C=C1C(=O)OC2C1CC[C@H](C)C13OC(=O)CC1[C@@]23C (stereo not given in full)	> 100 µM	> 100 µM		> 100 µM	> 100 µM	> 100 µM	> 100 µM									
O=c1c2cccc3cccc(c4oc5c6cccc7cccc(c(=O)c5c14)c76)c32	17.5 µM	17 µM	16.9 µM	22.2 µM	23.3 µM	15.8 µM	20.7 µM									
OCC(O)C(OC1OC(CO)C(O)C(O)C1O)c1nn(-c2ccccc2)c2nc3cc(Cl)c(Cl)cc3cc12 (stereo not given)	> 100 µM	> 100 µM	> 100 µM			> 100 µM										
COCC1N=C(c2cc(OC)c(OC)c(OC)c2-c2cc3c(cc2C2OCCCO2)OCO3)O[C@H]1c1ccccc1 (stereo not given in full)	> 100 µM	> 100 µM	> 100 µM	> 100 µM	> 100 µM	> 100 µM	> 100 µM									
Nc1ccn(CCO)c(=O)n1	> 100 µM	> 100 µM	> 100 µM	> 100 µM	> 100 µM	> 100 µM	> 100 µM									
O=C1OC(CC(=O)c2ccc(Cl)cc2Cl)C(Cl)=C1Cl (stereo not given)	> 79 µM	> 100 µM	> 70.6 µM	> 66.3 µM	41.7 µM	52.2 µM	> 75.6 µM									
Fc1cccc2cc3ccc4cccc5ccc(c12)c3c45	> 100 µM	> 100 µM		> 100 µM		> 100 µM	> 100 µM									
CCCCCCCCC(=O)N(C)C1C2CN3CCC(O2)C13 (stereo not given)	> 100 µM	> 100 µM	> 100 µM	> 100 µM	> 100 µM	> 100 µM	> 100 µM									
